Reference: article PMC11461078 (Oxidative Medicine and Cellular Longevity, 2024)
Read-outs that look alike come from different tables or passages of the source.

Experiments:
CCF-STTG1 cells [1] = test: Cell viability (MTT) under oxidative stress (200 µM H2O2 pretreatment); format: cell-based, human; settings: H2O2 200 μM
Method: In a second set of experiments, the CCF-STTG1 cell line was pretreated with 200 µM H2O2 for 30 min to explore the effects of the combination under oxidative stress conditions compared to the single agents by analysing cell viability, ROS, and NO productions. In addition, inflammatory biomarkers (TNFα and IL-2), BDNF production, and intracellular apoptotic and neurodegenerative markers activated were also analysed by ELISA kit.
A 96-well plate was used to measure cell viability of CCF-STTG1 cells after each stimulation using MTT-based In Vitro Toxicology Assay Kit (Merck Life Science, Milan, Italy), as reported in the literature. After stimulating cells, 1% MTT dye was incubated at 37°C in an incubator with 5% CO2 and 95% humidity, and purple formazan crystals were dissolved in MTT solubilisation solution after 2 hr. In addition, during the quantification, the background interference due to the extract was considered by making an empty sample (without cells but with the treatment), which was subtracted. To assess cell viability, absorbance at 570 nm with 690 nm correction was measured using a spectrometer (Infinite 200 Pro MPlex, Tecan, Männedorf, Switzerland) and compared to the control (0 line, which is 100% viable cells) and expressed in percentage.

BDNF = BDNF quantification ELISA under oxidative stress; format: cell-based, human; settings: H2O2 200 μM
Method: (§1) Human BDNF ELISA Kit (Thermo ScientificTM, Waltham, MA, United States) quantified BDNF in CCF-STTG1 cell supernatants following the manufacturer's instructions. Each well received a biotinylated detection antibody, and the plate was incubated at room temperature for 1 hr. After 45 min of HRP-conjugated streptavidin incubation, TMB substrate solution was added for 30 min, and a stop solution terminated the reaction. To calculate BDNF concentration, absorbance was measured at 450 nm using a spectrometer (Infinite 200 Pro MPlex, Tecan, Männedorf, Switzerland) and compared to the standard curve (0.066–16 ng/mL). The data are presented as mean ± SD (%) compared to the untreated control sample. The cells were also given 10 ng/mL BDNF as a positive control.
as §1, with “Elisa” for “ELISA”, “The data are presented as mean ± SD (%) compared to the untreated control sample. The cells were also given 10 ng/mL BDNF as a positive control.” left out

CCF-STTG1 cells [2] = test: ROS production (cytochrome C reduction) under oxidative stress; format: cell-based, human; settings: for reduction of ROS production compared to H2O2 200 μM: H2O2 200 μM pretreatment, 24 hr treatment, green tea 100 μM, saffron 25 μM, citicoline 100 μM, trans-R 1 µM, MIX
Method: In a second set of experiments, the CCF-STTG1 cell line was pretreated with 200 μM H2O2 for 30 min to explore the effects of the combination under oxidative stress conditions compared to the single agents by analysing cell viability, ROS, and NO productions. In addition, inflammatory biomarkers (TNFα and IL-2), BDNF production, and intracellular apoptotic and neurodegenerative markers activated were also analysed by ELISA kit. A standard procedure based on cytochrome C reduction on CCF-STTG1 cells quantified superoxide anion release. After treatment, 100 μL of cytochrome C (1 mg/mL, Merck Life Science, Rome, Italy) and 100 μL of superoxide dismutase (0.1 mg/mL, Merck Life Science, Rome, Italy) were added to each sample for 30 min in an incubator. At 550 nm, a spectrophotometer (Infinite 200 […], Männedorf, Switzerland) assessed absorbance in cell culture supernatants. O2 rate was represented as the mean SD (%) of nanomoles per decreased cytochrome C per microgram of protein relative to the control (0 line).

human = tested on: human; set-up: method as in PMID 23403474; settings: 500 mg per day for 2 weeks; cited from earlier work
[3] = tested on: BBB in vitro model (CCF-STTG1 cocultured with HUVEC on Transwells); settings: human
rats = tested on: rats; set-up: method as in PMID 29470767; settings: tramadol toxicity, 30 mg/kg orally for 28 consecutive days; cited from earlier work
pTau = test: Tau (Phospho) [pS199] ELISA under oxidative stress; format: cell-based, human; settings: H2O2 200 μM pretreatment
Method: Tau (Pospho) protein was investigated by Tau (Phospho) [[…]] Human ELISA Kit (Thermo ScientificTM, Waltham, MA, USA) on CCF-STTG1 cell lysates. In summary, 100 μL of each sample was added to the plate, incubated at 37°C for 90 min, removed, and washed three times. Next, add 100 μL of detection solution A to each well and incubate at 37°C for 45 min. Post-incubation, wash wells, add 100 μL detection solution B, and incubate at 37°C for 45 min. After adding 90 μL of substrate solution, the plate was incubated at 37°C for 20 min in the dark. The reaction was stopped with 50 μL of stop solution, and the absorbance was measured at 450 nm using a spectrometer (Infinite 200 […], Männedorf, Switzerland). Results are shown as mean SD (%) relative to the control, and concentration is reported in ng/mL by comparing data to the standard curve (15.6-1,000 pg/mL).

| Compound | Permeability values (Papp) ([3]; 4 h) [×10⁻⁶ cm/s] | Permeability values (Papp) ([3]; 12 h) [×10⁻⁶ cm/s] | Permeability values (Papp) ([3]; 24 h) [×10⁻⁶ cm/s] | reduction of ROS production compared to H2O2 200 μM (CCF-STTG1 cells [2]) | other results |
| --- | --- | --- | --- | --- | --- |
| OO [H2O2] | – | – | – | – | decrease in cell viability compared to the control (CCF-STTG1 cells [1]): about 22%; reduction of BDNF production vs control (BDNF): ~ 30%; increase in ROS production compared to the control (CCF-STTG1 cells [2]; H2O2 200 μM): about 42% |
| C[N+](C)(C)CCOP(=O)(O)OP(=O)([O-])OC[C@H]1O[C@@H](n2ccc(N)nc2=O)[C@H](O)[C@@H]1O [citicoline, cytidine diphosphate (CDP)-choline] | 0.2 | 0.58 | 0.44 | about 37% | serum malondialdehyde (MDA) levels (human): significantly decreased; vigilance, visual working memory, oxidative stress markers compared to placebo (human): improve human vigilance, visual working memory, and oxidative stress markers |
| CC(/C=C/C=C(\C)C(=O)O[C@@H]1O[C@H](CO[C@@H]2O[C@H](CO)[C@@H](O)[C@H](O)[C@H]2O)[C@@H](O)[C@H](O)[C@H]1O)=C\C=C\C=C(C)\C=C\C=C(/C)C(=O)O[C@@H]1O[C@H](CO[C@@H]2O[C@H](CO)[C@@H](O)[C@H](O)[C@H]2O)[C@@H](O)[C@H](O)[C@H]1O [crocin] | – | – | – | – | learning and memory (rats): improved learning and memory |
| Oc1ccc(/C=C/c2cc(O)cc(O)c2)cc1 [trans-R, trans-Resveratrol] | 0.2 | 0.83 | 0.53 | about 46% | pTau expression (in words) (pTau): inhibits its expression, similar to the MIX |
